Measured values as given in ChEMBL document CHEMBL1152840, “Antileukotrienic phenethylamido derivatives of arylalkanoic acids in the treatment of ulcerative colitis” (Eur J Med Chem, 2009).

Assays:
[1] = Lipophilicity, log K by HPLC method; format: physicochemical
[2] = Antileukotrienic activity in rat PMNC assessed as inhibition of Ca2+ ionophore A23187-induced LTB4 production by RIA; format: functional
Rattus norvegicus = assay: Antiinflammatory activity in rat assessed as inhibition of carrageenan-induced edema at 100 mg/kg relative to untreated control; format: functional
Mus musculus [3] = assay: Antiinflammatory activity in mouse assessed as inhibition of arachidonic acid-induced ear lobe edema at 200 mg/kg, po administered 1 hr before arachidonic acid challenge measured after 1 hr relative to untreated control; format: functional
Mus musculus [4] = assay: Antiinflammatory activity in mouse assessed as inhibition of arachidonic acid-induced ear lobe hyperemia at 200 mg/kg, po administered 1 hr before arachidonic acid challenge measured after 1 hr relative to untreated control; format: functional
Mus musculus [5] = assay: Antiinflammatory activity against dextrane disodium sulfate-induced ulcerative colitis in BALB/c mouse assessed as diseased animal with stool consistency at 250 mg/kg administered 1 hr before dextrane disodium sulfate challenge; format: functional
Mus musculus [6] = assay: Antiinflammatory activity against dextrane disodium sulfate-induced ulcerative colitis in BALB/c mouse assessed as diseased animal with rectal prolapse at 250 mg/kg administered 1 hr before dextrane disodium sulfate challenge; format: functional
Mus musculus [7] = assay: Antiinflammatory activity against dextrane disodium sulfate-induced ulcerative colitis in BALB/c mouse assessed as diseased animal with small intestine bleeding at 250 mg/kg administered 1 hr before dextrane disodium sulfate challenge; format: functional
Mus musculus [8] = assay: Antiinflammatory activity against dextrane disodium sulfate-induced ulcerative colitis in BALB/c mouse assessed as diseased animal with large intestine bleeding at 250 mg/kg administered 1 hr before dextrane disodium sulfate challenge; format: functional
Mus musculus [9] = assay: Antiinflammatory activity against dextrane disodium sulfate-induced ulcerative colitis in BALB/c mouse assessed as length of colon at 250 mg/kg administered 1 hr before dextrane disodium sulfate challenge; format: functional

log K [1] | IC50 [2] [µM] | Compound | inhibition in vivo at 100 mg/kg (Rattus norvegicus) [%] | inhibition in vivo at 200 mg/kg (Mus musculus [3]) [%] | inhibition in vivo at 200 mg/kg (Mus musculus [4]) [%] | Activity (Mus musculus [5]) [%] | Activity (Mus musculus [6]) [%] | Activity (Mus musculus [7]) [%] | Activity (Mus musculus [8]) [%] | Activity (Mus musculus [9]) [cm]
0.554 | 5.6 | CC(C(=O)O)c1ccc(OCCCCOc2ccc(CC(=O)N(C)CCc3ccccc3)cc2)c(Cl)c1 (stereo not given) | 44 | 37 | 0 | 0 | 0 | 0 | 60 | 7.9
0.175 |  | COc1cc(CCC(=O)O)ccc1OCCCOc1ccc(CC(=O)N(C)CCc2ccccc2)cc1 | 26 | 12 | 7.4 |  |  |  |  | 
0.636 | 7.5 | CC(CCc1ccc(OCCCOc2ccc(CC(=O)N(C)CCc3ccccc3)cc2)cc1)C(=O)O (stereo not given) |  | 16 | 3.7 | 100 | 0 | 0 | 60 | 7.2
0.617 | 5.7 | CC(C(=O)O)c1cccc2ccc(OCCCOc3ccc(CC(=O)NCCc4ccccc4)cc3)cc12 (stereo not given) | 30 | 12 | 0 |  |  |  |  | 
0.458 | 31 | CC(C(=O)O)c1ccc(OCCCCOc2ccc(CC(=O)N(C)CCc3ccccc3)cc2)cc1 (stereo not given) | 63 | 19 | 0 | 100 | 0 | 20 | 100 | 7.2
-0.089 | 20 | CN(CCc1ccccc1)C(=O)Cc1ccc(OCCOc2ccc(C(=O)CCC(=O)O)cc2)cc1 | 38 | 16 | 3.6 | 0 | 0 | 0 | 20 | 9.2
0.451 | 10 | CN(CCc1ccccc1)C(=O)Cc1ccc(OCCCCOc2ccc(CCC(=O)O)cc2)cc1 | 30 | 13 | 3.4 |  |  |  |  | 
0.166 |  | COc1cc(/C=C/C(=O)O)ccc1OCCCOc1ccc(CC(=O)N(C)CCc2ccccc2)cc1 | 20 | 16 | 7.1 |  |  |  |  | 
 |  | O=C(O)c1cc(/N=N/c2ccc(S(=O)(=O)Nc3ccccn3)cc2)ccc1O [SULFASALAZINE] |  |  |  | 53 | 0 | 0 | 80 | 9.1
0.344 | 100 | CC(C(=O)O)c1ccc(OCCCOc2ccc(CC(=O)N(C)CCc3ccccc3)cc2)cc1 (stereo not given) | 9.2 | 19 | 3.7 |  |  |  |  | 
0.336 | 8.5 | CN(CCc1ccccc1)C(=O)Cc1ccc(OCCCOc2ccc(/C=C/C(=O)O)cc2)cc1 | 13 | 21 | 3.7 |  |  |  |  | 
0.231 | 9.5 | CN(CCc1ccccc1)C(=O)Cc1ccc(OCCOc2ccc(CCCC(=O)O)cc2)cc1 | 36 | 12 | 3.6 | 80 | 0 | 0 | 100 | 7.1
0.6 | 16 | CN(CCc1ccccc1)C(=O)Cc1ccc(OCCCCOc2ccc(CCCC(=O)O)cc2)cc1 | 38 | 22 | 3.7 | 60 | 0 | 0 | 100 | 7.2
0.604 | 10 | CC(Cc1ccc(OCCCCOc2ccc(CC(=O)N(C)CCc3ccccc3)cc2)cc1)C(=O)O (stereo not given) | 37 | 10 | 7.4 |  |  |  |  | 
0.752 | 10 | CC(CCc1ccc(OCCCCOc2ccc(CC(=O)N(C)CCc3ccccc3)cc2)cc1)C(=O)O (stereo not given) | 56 | 22 | 3.7 | 0 | 0 | 0 | 60 | 9.3
0.502 | 8.2 | CC(Cc1ccc(OCCCOc2ccc(CC(=O)N(C)CCc3ccccc3)cc2)cc1)C(=O)O (stereo not given) |  |  |  |  |  |  |  | 
0.755 | 5.6 | CC(C(=O)O)c1cccc2ccc(OCCCCOc3ccc(CC(=O)NCCc4ccccc4)cc3)cc12 (stereo not given) | 22 | 26 | 3.3 | 20 | 0 | 0 | 80 | 7.5
0.274 | 13 | COc1cc(/C=C/C(=O)O)ccc1OCCCCOc1ccc(CC(=O)N(C)CCc2ccccc2)cc1 | 5.5 | 23 | 0 | 80 | 0 | 0 | 100 | 6.8
-0.061 |  | COc1cc(/C=C/C(=O)O)ccc1OCCOc1ccc(CC(=O)N(C)CCc2ccccc2)cc1 | 10 | 23 | 0 | 40 | 0 | 0 | 40 | 7.2
0.324 | 11 | CN(CCc1ccccc1)C(=O)Cc1ccc(OCCCOc2ccc(CCC(=O)O)cc2)cc1 | 61 | 23 | 3.7 | 80 | 0 | 0 | 100 | 6.8
0.081 | 47 | CN(CCc1ccccc1)C(=O)Cc1ccc(OCCOc2ccc(/C=C/C(=O)O)cc2)cc1 | 43 | 9.4 | 3.4 |  |  |  |  | 
0.462 | 8.7 | CN(CCc1ccccc1)C(=O)Cc1ccc(OCCCCOc2ccc(/C=C/C(=O)O)cc2)cc1 | 20 | 22 | 6.7 |  |  |  |  | 
0.38 | 19 | CC(CCc1ccc(OCCOc2ccc(CC(=O)N(C)CCc3ccccc3)cc2)cc1)C(=O)O (stereo not given) | 14 | 14 | 3.7 |  |  |  |  | 
0.451 | 12 | CN(CCc1ccccc1)C(=O)Cc1ccc(OCCCOc2ccc(CCCC(=O)O)cc2)cc1 | 30 | 13 | 3.4 |  |  |  |  | 
0.432 | 9.1 | CC(C(=O)O)c1ccc(OCCCOc2ccc(CC(=O)N(C)CCc3ccccc3)cc2)c(Cl)c1 (stereo not given) |  |  |  |  |  |  |  | 
0.267 | 8.1 | COc1cc(CCC(=O)O)ccc1OCCCCOc1ccc(CC(=O)N(C)CCc2ccccc2)cc1 | 27 | 20 | 11 | 60 | 0 | 0 | 100 | 7
